PubChem BioAssay AID228 (DTP/NCI, 2004)
Where “and” joins values, the source holds several entries; their conditions need not be identical. Equal values may be shown once. Records with an inconclusive call do not appear.

Tested on: BDF1 mice, Friend leukemia sc, tumor weight T/C
Test: NCI In Vivo Anticancer Drug Screen. Data for tumor model Friend Virus Leukemia (Solid) (subcutaneous) in B6D2F1 (BDF1) mice
Settings: endpoint: mean tumor weight, higher = larger tumour
Protocol: The antitumor activity of compounds was measured in mice bearing transplantable tumors. Survival or tumor size were measured and the results are expressed as the measurement made in the treated group (T) divided by the measurement made in the vehicle treated control group (C). The tumor model used in this assay is Friend Virus Leukemia (Solid) (subcutaneous) in B6D2F1 (BDF1) mice

[1] = dose: 25.0 mg/kg/injection, schedule: Q01DX011 (ip), vehicle: saline
[2] = dose: 77.0 mg/kg/injection, schedule: Q01DX011 (ip), vehicle: carboxymethylcellulose (CMC)
[3] = dose: 37.5 mg/kg/injection, schedule: Q01DX011 (ip), vehicle: carboxymethylcellulose (CMC)
[4] = dose: 125.0 mg/kg/injection, schedule: Q01DX011 (ip), vehicle: saline
[5] = dose: 40.0 mg/kg/injection, schedule: Q01DX011 (ip), vehicle: carboxymethylcellulose (CMC)
[6] = dose: 80.0 mg/kg/injection, schedule: Q01DX011 (ip), vehicle: carboxymethylcellulose (CMC)
[7] = dose: 250.0 mg/kg/injection, schedule: Q01DX011 (ip), vehicle: saline
[8] = dose: 3.0 mg/kg/injection, schedule: Q01DX011 (ip), vehicle: carboxymethylcellulose (CMC)
[9] = dose: 6.0 mg/kg/injection, schedule: Q01DX011 (ip), vehicle: carboxymethylcellulose (CMC)
[10] = dose: 1.0 mg/kg/injection, schedule: Q01DX011 (ip), vehicle: carboxymethylcellulose (CMC)
[11] = dose: 50.0 mg/kg/injection, schedule: Q01DX011 (ip), vehicle: carboxymethylcellulose (CMC)
[12] = dose: 500.0 mg/kg/injection, schedule: Q01DX011 (ip), vehicle: saline

## CCN(CC)CCN1C(=O)c2cccc3cccc(c23)C1=O
[1]
  T/C: 106 % of control
dose: 50.0 mg/kg/injection, schedule: Q01DX011 (ip), vehicle: saline
  T/C: 72 % of control
dose: 100.0 mg/kg/injection, schedule: Q01DX011 (ip), vehicle: saline
  T/C: 85 % of control

## c1ccc2[nH]cnc2c1
dose: 38.5 mg/kg/injection, schedule: Q01DX011 (ip), vehicle: carboxymethylcellulose (CMC)
  T/C: 82 % of control and 88 % of control
[2]
  T/C: 80 % of control and 83 % of control
dose: 308.0 mg/kg/injection, schedule: Q01DX011 (ip), vehicle: carboxymethylcellulose (CMC)
  T/C: 102 % of control

## O=C(O)CCc1c[nH]c2ccc(N(CCCl)CCCl)cc12
dose: 1.2 mg/kg/injection, schedule: Q01DX011 (ip), vehicle: carboxymethylcellulose (CMC)
  T/C: 107 % of control
dose: 2.5 mg/kg/injection, schedule: Q01DX011 (ip), vehicle: carboxymethylcellulose (CMC)
  T/C: 92 % of control
dose: 5.0 mg/kg/injection, schedule: Q01DX011 (ip), vehicle: carboxymethylcellulose (CMC)
  T/C: 114 % of control

## S=C(N=Nc1ccccc1)NNc1ccccc1
[3]
  T/C: 92 % of control

## CCCCSc1ncnc2nc[nH]c12
dose: 16.0 mg/kg/injection, schedule: Q01DX011 (ip), vehicle: saline
  T/C: 101 % of control
dose: 31.0 mg/kg/injection, schedule: Q01DX011 (ip), vehicle: saline
  T/C: 121 % of control
dose: 62.0 mg/kg/injection, schedule: Q01DX011 (ip), vehicle: saline
  T/C: 99 % of control
[4]
  T/C: 62 % of control

## CCC[CH2][Sn]1([CH2]CCC)[O]C(=O)C[S]1
dose: 0.62 mg/kg/injection, schedule: Q01DX011 (ip), vehicle: carboxymethylcellulose (CMC)
  T/C: 98 % of control
dose: 1.25 mg/kg/injection, schedule: Q01DX011 (ip), vehicle: carboxymethylcellulose (CMC)
  T/C: 68 % of control

## CCCC(Sc1nc(N)nc2nc[nH]c12)C(=O)O (stereo not drawn)
[5]
  T/C: 77 % of control
[6]
  T/C: 45 % of control
dose: 160.0 mg/kg/injection, schedule: Q01DX011 (ip), vehicle: carboxymethylcellulose (CMC)
  T/C: 5 % of control

## CC(=O)N(C)C
[7]
  T/C: 113 % of control

## Cc1nc(N2CC2)nc(N2CC2)c1[N+](=O)[O-]
dose: 2.0 mg/kg/injection, schedule: Q01DX011 (ip), vehicle: carboxymethylcellulose (CMC)
  T/C: 70 % of control
[8]
  T/C: 39 % of control
dose: 4.0 mg/kg/injection, schedule: Q01DX011 (ip), vehicle: carboxymethylcellulose (CMC)
  T/C: 41 % of control
[9]
  T/C: 63 % of control and 40 % of control

## [I][Hg][CH2]C1COCC([CH2][Hg][I])O1.[I][Hg][CH2]C1COCC([CH2][Hg][I])O1 (stereo not drawn)
dose: 10.0 mg/kg/injection, schedule: Q01DX011 (ip), vehicle: carboxymethylcellulose (CMC)
  T/C: 75 % of control
dose: 20.0 mg/kg/injection, schedule: Q01DX011 (ip), vehicle: carboxymethylcellulose (CMC)
  T/C: 56 % of control
[5]
  T/C: 77 % of control
[6]
  T/C: 45 % of control

## Cn1cnc([N+](=O)[O-])c1Sc1nc(N)nc2c1ncn2C1OC(CO)C(O)C1O (stereo not drawn)
dose: 0.25 mg/kg/injection, schedule: Q01DX011 (ip), vehicle: carboxymethylcellulose (CMC)
  T/C: 73 % of control
dose: 0.5 mg/kg/injection, schedule: Q01DX011 (ip), vehicle: carboxymethylcellulose (CMC)
  T/C: 61 % of control
[10]
  T/C: 31 % of control and 32 % of control
[8]
  T/C: 10 % of control and 24 % of control
dose: 7.0 mg/kg/injection, schedule: Q01DX011 (ip), vehicle: carboxymethylcellulose (CMC)
  T/C: 5 % of control

## O=P1(N(CCCl)CCCl)NCCCO1 (stereo not drawn)
dose: 0.5 mg/kg/injection, schedule: Q01DX015 (ip), vehicle: saline
  T/C: 183 % of control
dose: 1.0 mg/kg/injection, schedule: Q01DX015 (ip), vehicle: saline
  T/C: 209 % of control
dose: 1.5 mg/kg/injection, schedule: Q01DX011 (ip), vehicle: carboxymethylcellulose (CMC)
  T/C: 93 % of control
dose: 2.0 mg/kg/injection, schedule: Q01DX015 (ip), vehicle: saline
  T/C: 224 % of control
[8]
  T/C: 81 % of control
dose: 3.0 mg/kg/injection, schedule: Q01DX015 (ip), vehicle: saline
  T/C: 224 % of control
dose: 4.0 mg/kg/injection, schedule: Q01DX015 (ip), vehicle: saline
  T/C: 225 % of control
[9]
  T/C: 89 % of control
dose: 6.2 mg/kg/injection, schedule: Q01DX011 (ip), vehicle: saline
  T/C: 117 % of control
dose: 6.25 mg/kg/injection, schedule: Q01DX011 (ip), vehicle: carboxymethylcellulose (CMC)
  T/C: 28 % of control
dose: 7.12 mg/kg/injection, schedule: Q01DX011 (ip), vehicle: saline
  T/C: 105 % of control
dose: 8.0 mg/kg/injection, schedule: Q01DX011 (ip), vehicle: saline
  T/C: 101 % of control
dose: 12.0 mg/kg/injection, schedule: Q01DX011 (ip), vehicle: saline
  T/C: 58 % of control
dose: 12.5 mg/kg/injection, schedule: Q01DX011 (ip), vehicle: carboxymethylcellulose (CMC)
  T/C: 37 % of control
dose: 12.5 mg/kg/injection, schedule: Q01DX011 (ip), vehicle: saline
  T/C: 64 % of control
dose: 14.25 mg/kg/injection, schedule: Q01DX011 (ip), vehicle: saline
  T/C: 52 % of control
dose: 23.0 mg/kg/injection, schedule: Q01DX011 (ip), vehicle: saline
  T/C: 14 % of control
[1]
  T/C: 14 % of control
dose: 28.5 mg/kg/injection, schedule: Q01DX011 (ip), vehicle: saline
  T/C: 32 % of control
dose: 29.0 mg/kg/injection, schedule: Q01DX011 (ip), vehicle: saline
  T/C: 6 % of control
[11]
  T/C: 7 % of control and 10 % of control and 11 % of control

## CC/C(=C(/CC)c1ccc(O)cc1)c1ccc(O)cc1
dose: 6.5 mg/kg/injection, schedule: Q01DX011 (sc), vehicle: steriod suspending solution
  T/C: 171 % of control and 244 % of control
dose: 13.0 mg/kg/injection, schedule: Q01DX011 (sc), vehicle: steriod suspending solution
  T/C: 169 % of control
dose: 26.0 mg/kg/injection, schedule: Q01DX011 (sc), vehicle: steriod suspending solution
  T/C: 119 % of control and 121 % of control
dose: 52.0 mg/kg/injection, schedule: Q01DX011 (sc), vehicle: steriod suspending solution
  T/C: 83 % of control

## Nc1nc(SCc2ccccc2Cl)c2[nH]cnc2n1
[10]
  T/C: 88 % of control
[8]
  T/C: 77 % of control
[9]
  T/C: 67 % of control
dose: 12.0 mg/kg/injection, schedule: Q01DX011 (ip), vehicle: carboxymethylcellulose (CMC)
  T/C: 28 % of control
dose: 25.0 mg/kg/injection, schedule: Q01DX011 (ip), vehicle: carboxymethylcellulose (CMC)
  T/C: 18 % of control
[11]
  T/C: 7 % of control
dose: 100.0 mg/kg/injection, schedule: Q01DX011 (ip), vehicle: carboxymethylcellulose (CMC)
  T/C: 2 % of control

## C[C@]12CC[C@H](OC3OC(CO)C(O)C(O)C3O)C[C@H]1CC[C@@H]1[C@@H]2CC[C@]2(C)[C@@H](C3=CCOC3=O)CC[C@]12O (stereo partly drawn)
dose: 0.1 mg/kg/injection, schedule: Q01DX011 (ip), vehicle: carboxymethylcellulose (CMC)
  T/C: 69 % of control

## O=C(NO)c1ccncc1
[7]
  T/C: 79 % of control
[12]
  T/C: 78 % of control and 86 % of control
dose: 750.0 mg/kg/injection, schedule: Q01DX011 (ip), vehicle: saline
  T/C: 42 % of control and 48 % of control
dose: 950.0 mg/kg/injection, schedule: Q01DX011 (ip), vehicle: saline
  T/C: 7 % of control

## CC(=O)[C@H]1CC[C@H]2[C@@H]3CCC4=CC(=O)[C@H](C)C[C@]4(C)[C@@]3(F)[C@@H](O)C[C@]12C
dose: 9.5 mg/kg/injection, schedule: Q01DX011 (sc), vehicle: steriod suspending solution
  T/C: 71 % of control
dose: 19.0 mg/kg/injection, schedule: Q01DX011 (sc), vehicle: steriod suspending solution
  T/C: 50 % of control
dose: 75.0 mg/kg/injection, schedule: Q01DX011 (sc), vehicle: steriod suspending solution
  T/C: 25 % of control and 42 % of control and 46 % of control
dose: 150.0 mg/kg/injection, schedule: Q01DX011 (sc), vehicle: steriod suspending solution
  T/C: 28 % of control
dose: 300.0 mg/kg/injection, schedule: Q01DX011 (sc), vehicle: steriod suspending solution
  T/C: 19 % of control

## NNc1nncc2ccccc12
[3]
  T/C: 108 % of control
dose: 75.0 mg/kg/injection, schedule: Q01DX011 (ip), vehicle: carboxymethylcellulose (CMC)
  T/C: 66 % of control

## O=c1cnn(C2OC(CO)C(O)C2O)c(=O)[nH]1 (stereo not drawn)
dose: 62.5 mg/kg/injection, schedule: Q01DX011 (ip), vehicle: saline
  T/C: 160 % of control
[4]
  T/C: 170 % of control
[12]
  T/C: 105 % of control

## NNC(=O)NC(=O)NN
dose: 9.62 mg/kg/injection, schedule: Q01DX011 (ip), vehicle: carboxymethylcellulose (CMC)
  T/C: 90 % of control
dose: 19.25 mg/kg/injection, schedule: Q01DX011 (ip), vehicle: carboxymethylcellulose (CMC)
  T/C: 100 % of control
[2]
  T/C: 105 % of control
